These results are taken from publication PMC4620497 (Scientific Reports, 2015).

Each structure is given as a SMILES string.

In general, IC50 refers to the concentration that inhibits the measured activity by half. Broadly, the Kd is the constant that tells how readily two partners part at equilibrium. A higher Kd goes with lower affinity.

The target of assay [1] is T1, ERN1 (Homo sapiens, UniProt O75460). Details: method as in earlier work. To be noted: Table S1; cited from earlier work.
Assay [2] concerns the target T2, ABL1(T315I)-phosphorylated (Homo sapiens, UniProt P00519, T315I).
T2 construct: purchased DiscoveRx KINOMEscan (Ambit Biosciences)
Nature of the assay: KINOMEscan panel screen. Format: binding. The conditions noted are these: read-out: Percent Control(%).

A further assay has as its target T3, AKT3 (Homo sapiens, UniProt Q9Y243).
T3 construct: purchased DiscoveRx KINOMEscan (Ambit Biosciences)
Nature of the assay: KINOMEscan panel screen. The assay is classed as binding. The conditions noted are these: read-out: Percent Control(%).

Another assay addresses T4, DRAK1 (Homo sapiens, UniProt Q9UEE5).
T4 construct: purchased DiscoveRx KINOMEscan (Ambit Biosciences)
As to the kind of experiment: KINOMEscan panel screen. Format: binding. To be noted: read-out: Percent Control(%).

For another assay, the target named is T5, FLT3(R834Q) (Homo sapiens, UniProt P36888, R834Q).
T5 construct: purchased DiscoveRx KINOMEscan (Ambit Biosciences)
As to the kind of experiment: KINOMEscan panel screen. Format: binding. The conditions noted are these: read-out: Percent Control(%).

A further assay addresses T6, CAMK4 (Homo sapiens, UniProt Q16566).
T6 construct: purchased DiscoveRx KINOMEscan (Ambit Biosciences)
T6 sequence (Q16566 1-473): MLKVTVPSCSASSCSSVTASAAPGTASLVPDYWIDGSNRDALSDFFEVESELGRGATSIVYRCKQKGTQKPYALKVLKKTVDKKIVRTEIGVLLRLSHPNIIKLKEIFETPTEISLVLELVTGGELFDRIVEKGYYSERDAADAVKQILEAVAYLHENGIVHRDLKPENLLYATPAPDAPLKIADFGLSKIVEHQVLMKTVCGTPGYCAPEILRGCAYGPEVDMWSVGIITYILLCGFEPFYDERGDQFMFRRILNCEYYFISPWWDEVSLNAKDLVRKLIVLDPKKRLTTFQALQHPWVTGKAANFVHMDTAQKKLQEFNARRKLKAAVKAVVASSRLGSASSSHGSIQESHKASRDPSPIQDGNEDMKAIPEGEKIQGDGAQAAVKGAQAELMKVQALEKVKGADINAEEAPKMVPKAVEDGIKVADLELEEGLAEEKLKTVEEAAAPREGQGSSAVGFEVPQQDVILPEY
Nature of the assay: KINOMEscan panel screen. Format: binding. The conditions noted are these: read-out: Percent Control(%).

The next assay has as its system Miapaca-2. As to the kind of experiment: MTT cell viability assay. To be noted: Homo sapiens, MIA PaCa-2, 72 h. On the technique in general: Formazan colour is commonly taken as a measure of viable cells.
The target of assay [3] is T7, ABL1(M351T)-phosphorylated (Homo sapiens, UniProt P00519, M351T).
T7 construct: purchased DiscoveRx KINOMEscan (Ambit Biosciences)
As to the kind of experiment: KINOMEscan panel screen. The conditions noted are these: read-out: Percent Control(%). Format: binding.

In the next assay the target is T8, BMPR1A (Homo sapiens, UniProt P36894).
T8 construct: purchased DiscoveRx KINOMEscan (Ambit Biosciences)
As to the kind of experiment: KINOMEscan panel screen. To be noted: read-out: Percent Control(%). Format: binding.

For another assay, the target named is T9, AMPK-alpha1 (Homo sapiens, UniProt Q13131).
T9 construct: purchased DiscoveRx KINOMEscan (Ambit Biosciences)
Nature of the assay: KINOMEscan panel screen. Format: binding. The conditions noted are these: read-out: Percent Control(%).

For another assay, the target named is T10, MELK (Homo sapiens, UniProt Q14680).
T10 construct: purchased DiscoveRx KINOMEscan (Ambit Biosciences)
As to the kind of experiment: KINOMEscan panel screen. The conditions noted are these: read-out: Percent Control(%). Format: binding.

The next assay has as its target FLT3-D835Y (Homo sapiens, UniProt P36888, D835Y). Nature of the assay: KINOMEscan panel screen. The conditions noted are these: read-out: Percent Control(%). Format: binding. Details: purchased DiscoveRx KINOMEscan (Ambit Biosciences).
Another assay has as its target T11, MET(M1250T) (Homo sapiens, UniProt P08581, M1250T).
T11 construct: purchased DiscoveRx KINOMEscan (Ambit Biosciences)
Nature of the assay: KINOMEscan panel screen. To be noted: read-out: Percent Control(%). Format: binding.

The target in a further assay is T12, CHEK2 (Homo sapiens, UniProt O96017).
T12 construct: purchased DiscoveRx KINOMEscan (Ambit Biosciences)
Nature of the assay: KINOMEscan panel screen. The assay is classed as binding. To be noted: read-out: Percent Control(%).

For the next assay, the target named is T13, MST1 (Homo sapiens, UniProt Q13043).
T13 construct: purchased DiscoveRx KINOMEscan (Ambit Biosciences)
Nature of the assay: KINOMEscan panel screen. The assay is classed as binding. The conditions noted are these: read-out: Percent Control(%).

The next assay deals with LCK (Homo sapiens, UniProt P06239). Nature of the assay: KINOMEscan panel screen. Format: binding. To be noted: read-out: Percent Control(%).
In the next assay the target is ROCK1 (Homo sapiens, UniProt Q13464). Nature of the assay: KINOMEscan kinase binding assay (Kd).
For the next assay, the target named is T14, CDC2L2 (Homo sapiens, UniProt Q9UQ88).
T14 construct: purchased DiscoveRx KINOMEscan (Ambit Biosciences)
Nature of the assay: KINOMEscan panel screen. Format: binding. The conditions noted are these: read-out: Percent Control(%).

The next assay concerns the target T15, MST4 (Homo sapiens, UniProt Q9P289).
T15 construct: purchased DiscoveRx KINOMEscan (Ambit Biosciences)
Nature of the assay: KINOMEscan panel screen. Format: binding. To be noted: read-out: Percent Control(%).

Assay [4] deals with T1, ERN1. As to the kind of experiment: KINOMEscan panel screen. The assay is classed as binding. The conditions noted are these: read-out: Percent Control(%).
For a further assay, the target named is T16, MYLK2 (Homo sapiens, UniProt Q9H1R3).
T16 construct: purchased DiscoveRx KINOMEscan (Ambit Biosciences)
Nature of the assay: KINOMEscan panel screen. Format: binding. To be noted: read-out: Percent Control(%).

The target in assay [5] is T17, RSK3(Kin.Dom.2-C-terminal) (Homo sapiens, UniProt Q15349).
T17 construct: RSK3(Kin.Dom.2-C-terminal); purchased DiscoveRx KINOMEscan (Ambit Biosciences)
As to the kind of experiment: KINOMEscan panel screen. Format: binding. The conditions noted are these: read-out: Percent Control(%).

The target in the next assay is T18, CSNK1G1 (Homo sapiens, UniProt Q9HCP0).
T18 construct: purchased DiscoveRx KINOMEscan (Ambit Biosciences)
Nature of the assay: KINOMEscan panel screen. The assay is classed as binding. To be noted: read-out: Percent Control(%).

A further assay addresses T19, PIK3CB (Homo sapiens, UniProt P42338).
T19 construct: purchased DiscoveRx KINOMEscan (Ambit Biosciences)
Nature of the assay: KINOMEscan panel screen. The assay is classed as binding. To be noted: read-out: Percent Control(%).

A further assay deals with T20, MST2 (Homo sapiens, UniProt Q13188).
T20 construct: purchased DiscoveRx KINOMEscan (Ambit Biosciences)
Nature of the assay: KINOMEscan panel screen. Format: binding. To be noted: read-out: Percent Control(%).

Another assay addresses T21, SNRK (Homo sapiens, UniProt Q9NRH2).
T21 construct: purchased DiscoveRx KINOMEscan (Ambit Biosciences)
Nature of the assay: KINOMEscan panel screen. Format: binding. The conditions noted are these: read-out: Percent Control(%).

The next assay deals with T22, ERBB4 (Homo sapiens, UniProt Q15303).
T22 construct: purchased DiscoveRx KINOMEscan (Ambit Biosciences)
As to the kind of experiment: KINOMEscan panel screen. The conditions noted are these: read-out: Percent Control(%). Format: binding.

Another assay has as its target T23, GRK7 (Homo sapiens, UniProt Q8WTQ7).
T23 construct: purchased DiscoveRx KINOMEscan (Ambit Biosciences)
Nature of the assay: KINOMEscan panel screen. The assay is classed as binding. The conditions noted are these: read-out: Percent Control(%).

A further assay deals with T24, PAK3 (Homo sapiens, UniProt O75914).
T24 construct: purchased DiscoveRx KINOMEscan (Ambit Biosciences)
As to the kind of experiment: KINOMEscan panel screen. The assay is classed as binding. To be noted: read-out: Percent Control(%).

In a further assay the target is T25, FES (Homo sapiens, UniProt P07332).
T25 construct: purchased DiscoveRx KINOMEscan (Ambit Biosciences)
Nature of the assay: KINOMEscan panel screen. The assay is classed as binding. The conditions noted are these: read-out: Percent Control(%).

The target of the next assay is T26, ASK1 (Homo sapiens, UniProt Q99683).
T26 construct: purchased DiscoveRx KINOMEscan (Ambit Biosciences)
Nature of the assay: KINOMEscan panel screen. The assay is classed as binding. To be noted: read-out: Percent Control(%).

T1 sequence (O75460 19-977): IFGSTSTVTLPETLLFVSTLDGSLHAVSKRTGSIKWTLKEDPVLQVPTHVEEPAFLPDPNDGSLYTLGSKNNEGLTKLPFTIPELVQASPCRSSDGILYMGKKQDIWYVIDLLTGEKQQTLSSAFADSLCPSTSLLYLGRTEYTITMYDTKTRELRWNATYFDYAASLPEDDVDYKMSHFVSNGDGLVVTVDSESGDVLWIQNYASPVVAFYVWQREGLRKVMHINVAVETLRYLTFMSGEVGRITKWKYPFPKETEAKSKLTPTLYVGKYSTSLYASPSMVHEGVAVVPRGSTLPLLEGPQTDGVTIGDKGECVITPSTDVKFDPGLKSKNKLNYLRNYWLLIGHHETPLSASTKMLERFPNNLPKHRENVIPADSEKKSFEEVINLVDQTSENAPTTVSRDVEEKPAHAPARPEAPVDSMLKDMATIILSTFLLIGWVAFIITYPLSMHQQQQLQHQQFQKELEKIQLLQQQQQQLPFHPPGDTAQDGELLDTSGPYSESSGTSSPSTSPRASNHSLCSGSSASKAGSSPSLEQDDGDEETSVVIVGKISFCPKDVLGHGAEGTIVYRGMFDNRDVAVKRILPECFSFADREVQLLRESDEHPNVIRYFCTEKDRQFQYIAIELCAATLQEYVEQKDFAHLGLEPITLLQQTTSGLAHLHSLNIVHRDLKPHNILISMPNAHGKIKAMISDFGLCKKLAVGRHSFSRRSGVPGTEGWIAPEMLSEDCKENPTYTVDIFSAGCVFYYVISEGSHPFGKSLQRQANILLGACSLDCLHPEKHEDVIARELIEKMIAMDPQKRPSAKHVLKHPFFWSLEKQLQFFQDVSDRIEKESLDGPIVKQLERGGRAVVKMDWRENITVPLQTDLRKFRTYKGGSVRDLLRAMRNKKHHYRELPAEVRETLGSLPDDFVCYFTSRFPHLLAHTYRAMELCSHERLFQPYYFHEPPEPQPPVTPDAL
T4 sequence (Q9UEE5 whole entry): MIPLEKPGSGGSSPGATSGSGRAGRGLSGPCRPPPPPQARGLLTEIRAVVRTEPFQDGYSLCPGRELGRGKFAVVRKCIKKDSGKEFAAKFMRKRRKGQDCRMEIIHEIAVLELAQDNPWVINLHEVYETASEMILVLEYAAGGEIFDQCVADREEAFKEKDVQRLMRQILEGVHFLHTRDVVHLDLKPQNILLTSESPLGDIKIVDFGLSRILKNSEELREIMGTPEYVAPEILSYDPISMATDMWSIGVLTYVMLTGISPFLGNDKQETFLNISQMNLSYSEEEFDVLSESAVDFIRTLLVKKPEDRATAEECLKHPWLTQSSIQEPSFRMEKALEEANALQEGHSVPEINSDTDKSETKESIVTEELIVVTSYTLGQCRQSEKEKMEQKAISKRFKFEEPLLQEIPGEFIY
T9 sequence (Q13131 whole entry): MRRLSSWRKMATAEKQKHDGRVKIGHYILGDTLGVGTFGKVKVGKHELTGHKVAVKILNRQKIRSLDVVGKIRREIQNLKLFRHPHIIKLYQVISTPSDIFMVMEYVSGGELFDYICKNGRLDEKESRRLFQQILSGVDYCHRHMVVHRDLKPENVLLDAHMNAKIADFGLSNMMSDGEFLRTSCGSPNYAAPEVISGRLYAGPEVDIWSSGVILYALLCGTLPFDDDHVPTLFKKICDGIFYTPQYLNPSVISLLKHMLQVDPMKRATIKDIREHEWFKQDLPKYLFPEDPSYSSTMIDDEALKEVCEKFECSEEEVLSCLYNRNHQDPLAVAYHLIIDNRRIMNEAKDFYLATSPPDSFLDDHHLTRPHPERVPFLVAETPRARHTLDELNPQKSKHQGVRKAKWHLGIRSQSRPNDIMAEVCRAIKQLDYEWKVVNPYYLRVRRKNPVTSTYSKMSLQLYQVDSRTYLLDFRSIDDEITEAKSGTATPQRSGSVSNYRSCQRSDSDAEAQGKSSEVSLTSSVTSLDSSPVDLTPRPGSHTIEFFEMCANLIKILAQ
T16 sequence (Q9H1R3 whole entry): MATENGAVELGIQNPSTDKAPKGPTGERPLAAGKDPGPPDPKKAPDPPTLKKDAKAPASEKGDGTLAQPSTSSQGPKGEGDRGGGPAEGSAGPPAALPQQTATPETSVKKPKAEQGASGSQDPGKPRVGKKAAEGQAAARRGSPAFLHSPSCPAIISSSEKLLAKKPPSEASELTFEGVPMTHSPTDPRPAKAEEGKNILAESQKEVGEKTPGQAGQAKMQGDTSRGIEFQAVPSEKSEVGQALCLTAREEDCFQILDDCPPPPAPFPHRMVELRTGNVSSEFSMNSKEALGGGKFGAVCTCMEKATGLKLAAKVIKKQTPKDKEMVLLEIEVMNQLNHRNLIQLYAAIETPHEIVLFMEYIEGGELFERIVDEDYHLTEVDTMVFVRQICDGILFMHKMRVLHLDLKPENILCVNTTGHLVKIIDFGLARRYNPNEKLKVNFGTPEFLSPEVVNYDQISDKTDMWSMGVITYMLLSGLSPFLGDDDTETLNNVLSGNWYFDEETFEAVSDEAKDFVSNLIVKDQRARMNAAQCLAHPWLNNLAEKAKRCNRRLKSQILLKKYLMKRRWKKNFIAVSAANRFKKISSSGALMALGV
T23 sequence (Q8WTQ7 whole entry): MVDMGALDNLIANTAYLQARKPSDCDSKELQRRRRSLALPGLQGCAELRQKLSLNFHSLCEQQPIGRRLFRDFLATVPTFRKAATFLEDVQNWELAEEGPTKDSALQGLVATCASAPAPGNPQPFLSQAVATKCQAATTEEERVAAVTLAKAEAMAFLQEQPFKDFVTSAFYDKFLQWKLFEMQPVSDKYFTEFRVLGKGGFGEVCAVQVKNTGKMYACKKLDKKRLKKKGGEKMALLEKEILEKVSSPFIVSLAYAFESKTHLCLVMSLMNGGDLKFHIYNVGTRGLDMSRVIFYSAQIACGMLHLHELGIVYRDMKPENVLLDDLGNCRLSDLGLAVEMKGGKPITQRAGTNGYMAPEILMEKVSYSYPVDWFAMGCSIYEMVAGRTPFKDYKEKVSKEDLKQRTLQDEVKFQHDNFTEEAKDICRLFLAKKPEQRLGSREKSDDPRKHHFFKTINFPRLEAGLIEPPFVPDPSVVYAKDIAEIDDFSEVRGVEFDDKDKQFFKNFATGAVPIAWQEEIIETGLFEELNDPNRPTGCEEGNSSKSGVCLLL
T14 sequence (Q9UQ88 whole entry): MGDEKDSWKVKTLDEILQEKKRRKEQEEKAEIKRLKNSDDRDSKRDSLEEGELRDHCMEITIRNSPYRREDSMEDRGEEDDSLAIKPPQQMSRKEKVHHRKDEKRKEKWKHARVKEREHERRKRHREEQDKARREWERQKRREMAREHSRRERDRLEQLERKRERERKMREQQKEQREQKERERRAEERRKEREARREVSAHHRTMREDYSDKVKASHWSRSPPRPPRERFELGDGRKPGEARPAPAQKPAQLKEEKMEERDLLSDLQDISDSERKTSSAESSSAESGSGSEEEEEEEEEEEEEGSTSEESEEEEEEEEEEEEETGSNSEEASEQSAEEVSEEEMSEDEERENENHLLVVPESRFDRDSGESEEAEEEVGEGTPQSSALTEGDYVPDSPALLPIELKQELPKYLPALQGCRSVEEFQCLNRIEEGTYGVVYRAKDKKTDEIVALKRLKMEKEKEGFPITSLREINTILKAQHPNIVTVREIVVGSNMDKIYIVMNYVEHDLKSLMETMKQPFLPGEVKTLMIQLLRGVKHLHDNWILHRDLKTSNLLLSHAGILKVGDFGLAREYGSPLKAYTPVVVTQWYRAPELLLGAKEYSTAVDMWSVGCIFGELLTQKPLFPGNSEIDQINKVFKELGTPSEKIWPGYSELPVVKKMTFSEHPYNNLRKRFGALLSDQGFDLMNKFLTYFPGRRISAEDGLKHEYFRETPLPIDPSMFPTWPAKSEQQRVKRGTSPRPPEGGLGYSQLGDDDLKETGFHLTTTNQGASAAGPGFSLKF
T21 sequence (Q9NRH2 whole entry): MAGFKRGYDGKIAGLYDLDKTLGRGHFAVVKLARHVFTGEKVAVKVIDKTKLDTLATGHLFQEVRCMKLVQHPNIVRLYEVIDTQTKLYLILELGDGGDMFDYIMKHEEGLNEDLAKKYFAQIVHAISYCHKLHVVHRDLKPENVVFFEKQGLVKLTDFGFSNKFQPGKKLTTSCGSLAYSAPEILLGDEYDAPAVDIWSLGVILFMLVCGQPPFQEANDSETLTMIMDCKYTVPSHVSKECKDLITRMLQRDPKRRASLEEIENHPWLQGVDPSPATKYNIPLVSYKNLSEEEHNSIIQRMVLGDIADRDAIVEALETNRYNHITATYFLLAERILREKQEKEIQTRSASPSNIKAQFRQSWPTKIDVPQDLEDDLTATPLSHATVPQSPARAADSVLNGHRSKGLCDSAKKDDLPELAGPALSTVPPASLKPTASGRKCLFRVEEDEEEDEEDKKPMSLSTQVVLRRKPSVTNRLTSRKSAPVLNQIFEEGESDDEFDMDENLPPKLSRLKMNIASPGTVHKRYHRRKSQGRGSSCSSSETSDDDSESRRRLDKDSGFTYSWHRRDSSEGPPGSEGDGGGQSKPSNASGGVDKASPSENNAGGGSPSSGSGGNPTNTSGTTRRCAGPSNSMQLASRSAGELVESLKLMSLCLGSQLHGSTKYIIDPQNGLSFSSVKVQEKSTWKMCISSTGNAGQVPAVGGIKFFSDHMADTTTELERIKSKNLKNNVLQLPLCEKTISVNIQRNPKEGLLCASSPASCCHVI
T15 sequence (Q9P289 whole entry): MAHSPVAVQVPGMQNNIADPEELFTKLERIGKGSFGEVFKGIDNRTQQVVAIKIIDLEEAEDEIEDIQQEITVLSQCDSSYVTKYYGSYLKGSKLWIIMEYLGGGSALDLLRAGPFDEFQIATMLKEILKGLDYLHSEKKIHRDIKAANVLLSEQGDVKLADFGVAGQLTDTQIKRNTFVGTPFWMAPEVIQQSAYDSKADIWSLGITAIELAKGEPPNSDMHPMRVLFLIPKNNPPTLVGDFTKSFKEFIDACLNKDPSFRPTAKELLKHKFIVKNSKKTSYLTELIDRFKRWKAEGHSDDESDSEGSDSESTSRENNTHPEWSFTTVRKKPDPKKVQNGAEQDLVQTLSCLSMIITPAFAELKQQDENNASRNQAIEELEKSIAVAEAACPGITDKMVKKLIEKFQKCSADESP

On to `O=C(Nc1ccc(Oc2ncnc3[nH]ncc23)cc1)Nc1ccc(Cl)c(C(F)(F)F)c1` [Compound 1, 1-(4-(1H-pyrazolo[3,4-d]pyrimidin-4-yloxy)phenyl)-3-(4-chloro-3-(trifluoromethyl)phenyl)urea], for which, at ERN1 [1], the IC50 is over 10 µM.

On to `CC(C)(C)c1cc(NC(=O)Nc2ccc(Oc3ncnc4[nH]ncc34)c(F)c2)no1` [SKLB-677, 1-(4-(1H-pyrazolo[3,4-d]pyrimidin-4-yloxy)-3-fluorophenyl)-3-(5-tert-butylisoxazol-3-yl)urea], for which the remaining binding at 10 µM in assay [2] amounted to 3.3%; on AKT3, 100%; at DRAK1, 100%; at FLT3(R834Q), 2.8%; at CAMK4, 85%; in assay [3], 5.6%. In addition, the remaining binding at 10 µM at BMPR1A amounted to 90%; at AMPK-alpha1, 3%; at MELK it was 56%; on FLT3-D835Y it was 3.2%; at MET(M1250T), 2.2%; at CHEK2 it was 32%. The remaining binding at 10 µM stood at 28% on MST1; 0.3% on LCK; 53% at CDC2L2; 24% at MST4; 100% at ERN1 [4]; 72% at MYLK2. For the same compound, the remaining binding at 10 µM was determined as 19% in assay [5]; 86% at CSNK1G1; 100% on PIK3CB; 87% on MST2; 100% on SNRK; 81% at ERBB4. In addition, the remaining binding at 10 µM at GRK7 came to 87%; on PAK3, 6.4%; on FES it was 7.2%; on ASK1, 57%. The IC50 in the assay with Miapaca-2 was over 10 µM. Besides, the Kd at ROCK1 was over 10 µM.
